# According to PubChem BioAssay (NCI):
# Where “and” joins values, the source holds several entries; their conditions need not be identical. Equal values may be shown once.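 These data come from cells grown in 96-well plates and exposed to compound for 48 hours at five concentrations. At the GI50, growth is halved. Definition used: TGI = concentration required for complete inhibition of growth.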 Calls of active or inactive are those of the source. No stated cut-off is given here; in the data, active means GI50 below about 0.43 µM; inactive means the rest.
# Tested on: MDA-MB-468 breast
# Test: inhibition of tumour cell growth, NCI panel, 48 h
Compound,GI50,TGI,outcome
CC(=O)/C(=C/c1ccccc1)C(=O)CC(C)C,11100 nM,28000 nM,–
O=C(CCl)NCCNc1nccc(Nc2ccc(S(=O)(=O)Nc3ccccn3)cc2)n1,1050 nM,4530 nM,–
NC(=NCc1ccccc1)C(N=Nc1ccccc1)C(=O)NCc1ccccc1 (stereo not given),11500 nM,26400 nM,–
Cn1c(=O)c(Oc2ccc(F)cc2F)cc2cnc(NC(C)(C)CO)nc21,> 25000 nM,> 25000 nM,–
O=c1oc2ccc(I)cc2c(=O)n1-c1ccc(F)cc1F,2230 nM,5690 nM,–
Oc1ccc(Nc2ccc3ccccc3c2)cc1,8050 nM,26700 nM,–
COc1cc(C2CC(c3cccc(Nc4ccnc5cc(Cl)ccc45)c3)=NN2c2ccc(Cl)cc2)cc(OC)c1OC (stereo not given),6290 nM,> 100000 nM,–
COc1ccc2c(c1)c(-c1nc(-c3c[nH]c4ncccc34)cs1)cn2CCCN1CCCCC1,1860 nM,3560 nM,–
COc1cc2c(c(OC)c1OC)-c1ccc(O)cc1[C@@H](NC(C)=O)CC2,24.4 nM,68.4 nM,–
CC1CCN(Cc2ccc(NC(=O)c3cc4ccc5cccnc5c4[nH]3)cc2)CC1,2610 nM,16300 nM,–
Cc1ccc(Nc2nccc(N(C)c3ccc4c(C)n(C)nc4c3)n2)cc1S(N)(=O)=O,1770 nM and 2370 nM and 2200 nM,> 100000 nM and > 10000 nM and 45200 nM,–
CCCCCCCCCCCCCCCC1=NCCN1,2220 nM,4070 nM,–
CCCCCCCCCCCCCCCCCc1nccn1CCOCCO,–,–,inactive
CCCCOC(=O)c1ccc(N)cc1,84600 nM,> 100000 nM,–
COc1ccc(C=Nc2c(C(=O)Nc3cccc(Cl)c3C)sc3nc(C)c(C(=O)/C=C/c4ccc(OC)cc4)cc23)cc1,200 nM,2200 nM,–
Cc1c(-c2ccc(C3CCCCC3)cc2)nc2ccc(F)cc2c1C(=O)O,19100 nM,> 100000 nM,–
COC1C(O)CC(OC2CC(OC3CC(O[C@@H]4C(=O)c5c(cc6cc(OC7CC(OC8CC(O)C(O)C(C)O8)C(O)C(C)O7)c(C)c(O)c6c5O)CC4[C@H](OC)C(=O)O)OC(C)C3O)OC(C)C2O)OC1C (stereo not given in full),2590 nM,12400 nM,–
CSc1c(C2=C(c3cn(C)c4ccccc34)C(=O)NC2=O)c2ccccc2n1C,562 nM,> 25000 nM,–
CC(C)(C)Nc1nc2c(OCCc3ccccc3)cccn2c1-c1cccc(Oc2ccccc2)c1,2200 nM,6750 nM,–

Compound,GI50,TGI,outcome
Nc1c(C(=O)Nc2ccccc2)sc2nc3c(cc12)CCCCC3,254 nM,946 nM,–
C[C@H]1/C(=C/C(=O)OCCN(C)C)CC[C@H]2[C@H]1C(=O)C[C@H]1C(C)(C)[C@@H](O)CC[C@]21C,> 100000 nM,> 100000 nM,–
CCCCC(CCCCCC(CCCC)NCc1ccc2c(c1)OCO2)NCc1ccc2c(c1)OCO2 (stereo not given),480 nM,981 nM,–
O=C1/C(=C/c2ccccc2)CN(C(=O)C(Cl)Cl)C/C1=C\c1ccccc1,342 nM,1380 nM,–
O=C(O)[C@H](Cc1c[nH]c2ccccc12)N1C(=O)c2ccccc2C1=O,> 100000 nM,> 100000 nM,–
O=C1/C=C/[C@@H](O)[C@@H]2C[C@@H](O)C[C@H]2/C=C/CCC[C@H](CCc2cccc3ccccc23)O1,25.3 nM,86.7 nM,–
C=C1CC2(CC(c3ccccc3Cl)OC(c3ccccc3Cl)C2)OC1=O (stereo not given),1750 nM,3430 nM,–
Cc1ccc2oc(=O)cc(/C(=C3/C=CC=N3)c3ccc[nH]3)c2c1,243 nM,1020 nM,–
COc1ccc(/C=C2\CN(C(=O)C(Cl)Cl)C/C(=C\c3ccc(OC)cc3)C2=O)cc1,1040 nM,2740 nM,–
O=S(=O)(CCN1CCOCC1)Nc1cc(-c2ccc3ncnc(Nc4ccc(F)c(Cl)c4)c3c2)cnc1Cl,198 nM,1560 nM,–
COc1cc(OC)cc(-c2ccc(-c3ccc(C(=N)N)cn3)o2)c1,1510 nM,3100 nM,–
CCCCN1CCCC[C@@H]1C(=O)N[C@H](C(=O)N(C)[C@H](C[C@@H](OC(C)=O)c1nc(C(=O)NC2CCC(C(=O)OC)CC2)cs1)C(C)C)C(C)C (stereo not given in full),707 nM,8180 nM,–
CN(C)CCCN(CCC1CCCCC1)CCC1CCCCC1,1460 nM,3070 nM,–
O=C(CC1(O)C(=O)N(Cc2ccccc2)c2ccc(Cl)cc21)c1ccc(C(=O)NCC2CCC3(CC2)OOC2(CCCCC2)OO3)cc1 (stereo not given),1270 nM,4260 nM,–
CCN1CCC(Nc2ccnc3cc(Cl)ccc23)CC1,13300 nM,32000 nM,–
CC/C=C\C[C@H](F)C/C=C1/C(=O)C=C[C@@H]1C/C=C\CCCC(=O)OC,5260 nM,17200 nM,–
CCCc1n(Cc2ccc3ccccc3c2)cc[n+]1Cc1ccc2ccccc2c1,277 nM,980 nM,–
C=C1C(=O)O[C@H]2[C@H]1CC/C(COC(=O)NCc1c[nH]c3ccccc13)=C\CC[C@@]1(C)O[C@@H]21,820 nM,3580 nM,–
Cn1ccnc1C(=O)/C=C/c1ccc(NC(=O)Nc2ccccc2)cc1,11400 nM,27500 nM,–
